# Laboratory results: patent US9211310B2, “Use of a Chinese medicine composition in preparing medicaments for treating secondary prevention of myocardial infarction” (TASLY PHARMACEUTICAL GROUP CO., LTD, priority 2010, dated 2015)
# Test system: patients after acute myocardial infarction
# Test: Life quality, Seattle Angina Questionnaire (SAQ), same clinical trial
# Assay type: in vivo, human
# Conditions: 12 months after treatment
# Source text: 3508 patients who were in accordance with the diagnostic standards of AMI for 28 days to 2 years and differentiated as Qi deficiency and blood stagnation syndrome by TCM were studied. 0.5 g Chinese medicine composition prepared by the method of EXAMPLE 1 (Coded as QSYQ) was administrated half an hour after meal, 3 times per day.
# There were 19 questions in the Seattle angina questionnaire (SAQ), including 5 parts: physical limitation (PL), anginal stability (AS), anginal frequency (AF), treatment satisfaction (TS) and disease perception (DP). After being given necessary explanation by doctors, the questions were answered independently by patients.
# They included the overall survival time, angina pectoris score, TCM symptom score and life quality score, where angina pectoris score, TCM symptom score and life quality score were evaluated at randomization, in 1st, 3rd, 6th, 9th, 12th month after treatment and 18th month after follow-up.
# All evaluation results of SAQ were described during the period of observation, and Wilcoxon rank sum test was used for inter-group comparison.
# The evaluation results in the SAQ were depicted in different observations, and inter-group comparison was tested by Wilcoxon Rank-sum test.
smiles,measurement,setting,value
"CC(=O)Oc1ccccc1C(=O)O [Control group, aspirine]","SAQ Question 1-5: Not limited, number of patients",FAS,863
same,"SAQ Question 1-5: Not limited, percent of patients",FAS,(49.51%)
same,"SAQ Question 1-5: Other reasons, number of patients",FAS,11
same,"SAQ Question 1-5: Other reasons, percent of patients",FAS,(0.63%)
same,"SAQ Question 1-5: Severely limited, number of patients",FAS,13
same,"SAQ Question 1-5: Severely limited, percent of patients",FAS,(0.75%)
same,"SAQ Question 1-5: Slightly limited, number of patients",FAS,517
same,"SAQ Question 1-5: Slightly limited, percent of patients",FAS,(29.66%)
same,"SAQ Question 1-9: Mildly limited, % of cases",FAS,(19.60%)
same,"SAQ Question 1-9: Mildly limited, cases",FAS,336
same,"SAQ Question 1-9: Moderately limited, % of cases",FAS,(20.42%)
same,"SAQ Question 1-9: Moderately limited, cases",FAS,350
same,"SAQ Question 1-9: Not limited, % of cases",FAS,(4.55%)
same,"SAQ Question 1-9: Not limited, cases",FAS,78
same,"SAQ Question 1-9: Other reasons, % of cases",FAS,(5.89%)
same,"SAQ Question 1-9: Other reasons, cases",FAS,101
same,"SAQ Question 1-9: Severely limited, % of cases",FAS,(31.62%)
same,"SAQ Question 1-9: Severely limited, cases",FAS,542
same,"SAQ Question 1-9: Slightly limited, % of cases",FAS,(17.91%)
same,"SAQ Question 1-9: Slightly limited, cases",FAS,307
same,"SAQ 2nd question: Clearly increased, % of cases",PP,(0.14%)
same,"SAQ 2nd question: Clearly increased, cases",PP,2
same,"SAQ 2nd question: Clearly reduced, % of cases",PP,(30.04%)
same,"SAQ 2nd question: Clearly reduced, cases",PP,428
same,"SAQ 2nd question: Same, % of cases",PP,(37.05%)
same,"SAQ 2nd question: Same, cases",PP,528
same,"SAQ 2nd question: Slightly increased, % of cases",PP,(1.96%)
same,"SAQ 2nd question: Slightly increased, cases",PP,28
same,"SAQ 2nd question: Slightly reduced, % of cases",PP,(30.81%)
same,"SAQ 2nd question: Slightly reduced, cases",PP,439
same,"SAQ 3rd question: 1-2 times per week, % of cases",PP,(30.81%)
same,"SAQ 3rd question: 1-2 times per week, cases",PP,439
same,"SAQ 3rd question: 1-3 times per day, % of cases",PP,(1.96%)
same,"SAQ 3rd question: 1-3 times per day, cases",PP,28
same,"SAQ 3rd question: <1 time per week, % of cases",PP,(30.04%)
same,"SAQ 3rd question: <1 time per week, cases",PP,428
same,"SAQ 3rd question: No onset, % of cases",PP,(0.00%)
same,"SAQ 3rd question: No onset, cases",PP,0
same,"SAQ 3rd question: ≧3 times per week, % of cases",PP,(37.05%)
same,"SAQ 3rd question: ≧3 times per week, cases",PP,528
same,"SAQ 3rd question: ≧4 times per day, % of cases",PP,(0.14%)
same,"SAQ 3rd question: ≧4 times per day, cases",PP,2
same,"SAQ Question 1-3: Mildly limited, number of patients",PP,30
same,"SAQ Question 1-3: Mildly limited, percent of patients",PP,(2.11%)
same,"SAQ Question 1-3: Moderately limited, number of patients",PP,3
same,"SAQ Question 1-3: Moderately limited, percent of patients",PP,(0.21%)
same,"SAQ Question 1-3: Not limited, number of patients",PP,1225
same,"SAQ Question 1-3: Not limited, percent of patients",PP,(86.03%)
same,"SAQ Question 1-3: Other reasons, number of patients",PP,8
same,"SAQ Question 1-3: Other reasons, percent of patients",PP,(0.56%)
same,"SAQ Question 1-3: Severely limited, number of patients",PP,1
same,"SAQ Question 1-3: Severely limited, percent of patients",PP,(0.07%)
same,"SAQ Question 1-3: Slightly limited, number of patients",PP,157
same,"SAQ Question 1-3: Slightly limited, percent of patients",PP,(11.03%)
same,"SAQ Question 1-4: Mildly limited, number of patients",PP,177
same,"SAQ Question 1-4: Mildly limited, percent of patients",PP,(12.43%)
same,"SAQ Question 1-4: Moderately limited, number of patients",PP,41
same,"SAQ Question 1-4: Moderately limited, percent of patients",PP,(2.88%)
same,"SAQ Question 1-4: Not limited, number of patients",PP,724
same,"SAQ Question 1-4: Not limited, percent of patients",PP,(50.84%)
same,"SAQ Question 1-4: Other reasons, number of patients",PP,11
same,"SAQ Question 1-4: Other reasons, percent of patients",PP,(0.77%)
same,"SAQ Question 1-4: Severely limited, number of patients",PP,2
same,"SAQ Question 1-4: Severely limited, percent of patients",PP,(0.14%)
same,"SAQ Question 1-4: Slightly limited, number of patients",PP,469
same,"SAQ Question 1-4: Slightly limited, percent of patients",PP,(32.94%)
same,"SAQ Question 1-5: Mildly limited, number of patients",PP,198
same,"SAQ Question 1-5: Mildly limited, percent of patients",PP,(13.93%)
same,"SAQ Question 1-5: Moderately limited, number of patients",PP,52
same,"SAQ Question 1-5: Moderately limited, percent of patients",PP,(3.66%)
same,"SAQ Question 1-5: Not limited, number of patients",PP,736
same,"SAQ Question 1-5: Not limited, percent of patients",PP,(51.79%)
same,"SAQ Question 1-5: Other reasons, number of patients",PP,10
same,"SAQ Question 1-5: Other reasons, percent of patients",PP,(0.70%)
same,"SAQ Question 1-5: Severely limited, number of patients",PP,3
same,"SAQ Question 1-5: Severely limited, percent of patients",PP,(0.21%)
same,"SAQ Question 1-5: Slightly limited, number of patients",PP,422
